This passage reports IC50, inhibition and Activity results from ChEMBL document CHEMBL5247593, “Novel heterocyclic hydroxamates as inhibitors of the mycobacterial zinc metalloprotease Zmp1 to probe its mechanism of function” (Eur J Med Chem, 2022).

One experiment concerns RAW264.7. Briefly: Cytotoxicity against mouse RAW264.7 cells assessed as inhibition of cell growth measured after 72 hrs by resazurin staining based […] analysis. In kind it is functional. As to conditions: RAW264.7, 72 h. A general note: Alamar Blue is a resazurin reagent that responds to reducing activity.
The test system of experiment [1] is Mycobacterium tuberculosis. Briefly: Antimycobacterial activity against Mycobacterium tuberculosis H37Ra ATCC 25177 assessed as inhibition of bacterial growth at 128 uM measured after 7 days by luminescence based analysis relative to control. The class given is functional. The settings on record: H37Ra ATCC 25177, 168 h, time 7 day.
The test system of experiment [2] is Mycobacterium tuberculosis. Briefly: Inhibition of Mycobacterium tuberculosis Zmp1 at 8 to 40 uM by MALDI-TOF-MS analysis. The settings on record: dose 8-40 µM.
Experiment [3] concerns Mycobacterium tuberculosis. Briefly: Antimycobacterial activity against Mycobacterium tuberculosis H37Ra infected in mouse RAW264.7 cells assessed as reduction in intracellular bacterial survival at 128 uM incubated for 3 days by luminescence based analysis relative to control. The class given is functional. The settings on record: time 3 day.
The next experiment relates to MRC5. Kind of experiment: Cytotoxicity against human MRC5 cells assessed as inhibition of cell growth measured after 72 hrs by resazurin staining based […] analysis. As to conditions: MRC5, 72 h. The class given is functional.

The IC50 is the concentration that inhibits the measured activity by half. By inhibition is commonly meant the relative decrease from the control value, in per cent. For the molecule `C=CCONC(=O)CN1C(=O)S/C(=C\c2ccc(C(=O)N[C@@H](CC(C)C)C(=O)OC)cc2)C1=O`, the IC50 in the experiment on RAW264.7 (read-out: IC50) and in the experiment with MRC5 was more than 128 µM throughout. Besides, in experiment [1], the inhibition at 128 µM came out at 4.4%. The same molecule displayed an inhibition in experiment [2] of 6%. The Activity in experiment [3] amounted to 67.3%.

In the case of `CC(C)C[C@H](NC(=O)[C@H](C)NC(=O)c1ccn(CC(=O)NOCc2ccccc2)c1)C(=O)O`, the IC50 in the experiment with RAW264.7 (read-out: IC50) and in the experiment on MRC5 was more than 128 µM throughout. In addition, the inhibition at 128 µM in experiment [1] was found to be 3.2%. Further, the inhibition in experiment [2] is 62%.

Consider `C=CCONC(=O)Cn1ccc(C(=O)NCC(=O)N[C@H](C(=O)O)C(C)C)c1`, for which, in experiment [2], the inhibition amounted to 14%.

As to `CC(C)[C@H](NC(=O)CNC(=O)c1cn(CC(=O)NOCc2ccccc2)c2ccccc12)C(=O)O`, the IC50 in the experiment with RAW264.7 (read-out: IC50) and in the experiment with MRC5 was more than 128 µM each time. The inhibition at 128 µM in experiment [1] was 30.3%. This molecule also showed an inhibition in experiment [2] of 69%. Further, the Activity in experiment [3] is reported as 37.2%.

As to `CC(C)[C@H](NC(=O)[C@H](C)NC(=O)c1cn(CC(=O)NOCc2ccccc2)c2ccccc12)C(=O)O`, the IC50 in the experiment on RAW264.7 (read-out: IC50) and in the experiment on MRC5 was more than 128 µM each time. For the same molecule, the inhibition at 128 µM in experiment [1] was found to be 23.6%. This molecule also yielded an inhibition in experiment [2] of 59%.

In the case of `C=CCONC(=O)Cn1cc(C(=O)N[C@@H](C)C(=O)N[C@H](C(=O)O)C(C)C)c2ccccc21`, the IC50 with RAW264.7 (read-out: IC50) and in the experiment with MRC5 was more than 128 µM throughout. For the same molecule, in experiment [1], the inhibition at 128 µM came to 13.6%. This molecule displayed an inhibition in experiment [2] of 50%.

As for `COC(=O)[C@@H](NC(=O)c1ccc(/C=C2\SC(=O)N(CC(=O)NOCc3ccccc3)C2=O)cc1)C(C)C`, the IC50 in the experiment with RAW264.7 (read-out: IC50) and in the experiment on MRC5 was more than 128 µM throughout. Further, the inhibition at 128 µM in experiment [1] stood at 6.2%. In experiment [2], this molecule displayed an inhibition of 41%. Besides, in experiment [3], the Activity came to 83.2%.

`COC(=O)[C@@H](NC(=O)c1cccc(/C=C2\SC(=O)N(CC(=O)NOCc3ccccc3)C2=O)c1)C(C)C`: the IC50 with RAW264.7 (read-out: IC50) and with MRC5 was more than 128 µM each time. Further, in experiment [1], the inhibition at 128 µM stood at 6.3%. For the same molecule, the Activity in experiment [3] was found to be 35.1%.

Regarding `C=CCONC(=O)CN1C(=O)S/C(=C\c2cccc(C(=O)N[C@@H](CC(C)C)C(=O)OC)c2)C1=O`, the IC50 with RAW264.7 (read-out: IC50) and in the experiment with MRC5 was more than 128 µM in each case. Also, in experiment [1], the inhibition at 128 µM was 3.2%. The molecule also returned an inhibition in experiment [2] of 47%. In experiment [3], the Activity turned out to be 46.3%.

For the molecule `COC(=O)[C@H](CC(C)C)NC(=O)c1cccc(/C=C2\SC(=O)N(CC(=O)NOCc3ccccc3)C2=O)c1`, the IC50 in the experiment with RAW264.7 (read-out: IC50) and in the experiment on MRC5 was more than 128 µM each time. In addition, the inhibition at 128 µM in experiment [1] turned out to be 4.2%. The molecule also returned an inhibition in experiment [2] of 19%. Moreover, in experiment [3], the Activity came out at 51.9%.

For the molecule `C=CCONC(=O)Cn1ccc(C(=O)N[C@@H](C)C(=O)N[C@@H](CC(C)C)C(=O)O)c1`, the IC50 with RAW264.7 (read-out: IC50) and in the experiment on MRC5 was more than 128 µM throughout. For the same molecule, in experiment [1], the inhibition at 128 µM worked out at 13.8%. The inhibition in experiment [2] turned out to be 88%.

In the case of `C=CCONC(=O)CN1C(=O)S/C(=C\c2cccc(C(=O)N[C@H](C(=O)OC)C(C)C)c2)C1=O`, the IC50 in the experiment with RAW264.7 (read-out: IC50) and with MRC5 was more than 128 µM each time. For the same molecule, the inhibition at 128 µM in experiment [1] is 3.4%. In addition, the Activity in experiment [3] was determined as 14.1%.

Turning to `C=CCONC(=O)CN1C(=O)S/C(=C\c2ccc(C(=O)N[C@H](C(=O)OC)C(C)C)cc2)C1=O`, the IC50 with RAW264.7 (read-out: IC50) and in the experiment on MRC5 was more than 128 µM each time. The inhibition at 128 µM in experiment [1] was determined as 8.2%. Also, the inhibition in experiment [2] worked out at 38%. Further, the Activity in experiment [3] came to 28.4%.

With `CC/C(=C(\c1ccccc1)c1ccc(OCCN(C)C)cc1)c1ccccc1` [TAMOXIFEN], the results for the IC50 in the experiment on RAW264.7 and with MRC5 were 18.5 µM and 17.2 µM, respectively.

For `CC(C)[C@H](NC(=O)CNC(=O)c1ccn(CC(=O)NOCc2ccccc2)c1)C(=O)O`, the IC50 with RAW264.7 (read-out: IC50) and in the experiment on MRC5 was more than 128 µM in each case. Moreover, in experiment [1], the inhibition at 128 µM stood at 5.9%. In experiment [2], this molecule had an inhibition of 70%.

As to `CC(C)[C@H](NC(=O)[C@H](C)NC(=O)c1ccn(CC(=O)NOCc2ccccc2)c1)C(=O)O`, the IC50 in the experiment on RAW264.7 (read-out: IC50) and in the experiment on MRC5 was more than 128 µM in each case. Moreover, the inhibition at 128 µM in experiment [1] turned out to be 6.9%. In addition, the inhibition in experiment [2] was 16%.

In the case of `NNC(=O)c1ccncc1` [ISONIAZID], the inhibition at 128 µM in experiment [1] came to 100%.

For `C=CCONC(=O)Cn1cc(C(=O)NCC(=O)N[C@@H](CC(C)C)C(=O)O)c2ccccc21`, the IC50 in the experiment on RAW264.7 (read-out: IC50) and in the experiment on MRC5 was more than 128 µM each time. For the same molecule, in experiment [1], the inhibition at 128 µM stood at 14.6%. The inhibition in experiment [2] is 47%.

With `C=CCONC(=O)Cn1ccc(C(=O)NCC(=O)N[C@@H](CC(C)C)C(=O)O)c1`, the IC50 with RAW264.7 (read-out: IC50) and in the experiment on MRC5 was more than 128 µM in each case. For the same molecule, the inhibition at 128 µM in experiment [1] was found to be 6.9%. This molecule also registered an inhibition in experiment [2] of 13%.

In the case of `C=CCONC(=O)Cn1cc(C(=O)N[C@@H](C)C(=O)N[C@@H](CC(C)C)C(=O)O)c2ccccc21`, the IC50 in the experiment on RAW264.7 (read-out: IC50) and in the experiment with MRC5 was more than 128 µM each time. For the same molecule, in experiment [1], the inhibition at 128 µM was determined as 12.4%. Moreover, in experiment [2], the inhibition worked out at 86%.

As for `C=CCONC(=O)Cn1cc(C(=O)NCC(=O)N[C@H](C(=O)O)C(C)C)c2ccccc21`, the IC50 with RAW264.7 (read-out: IC50) and in the experiment on MRC5 was more than 128 µM each time. For the same molecule, the inhibition at 128 µM in experiment [1] worked out at 10.3%. For the same molecule, in experiment [2], the inhibition came to 56%.

In the case of `CC(C)C[C@H](NC(=O)CNC(=O)c1cn(CC(=O)NOCc2ccccc2)c2ccccc12)C(=O)O`, the IC50 in the experiment on RAW264.7 (read-out: IC50) and in the experiment on MRC5 was more than 128 µM in each case. Besides, the inhibition at 128 µM in experiment [1] amounted to 11.1%. Also, the inhibition in experiment [2] was found to be 57%.

As for `CO[C@H]1/C=C/O[C@@]2(C)Oc3c(C)c(O)c4c(O)c(c(/C=N/N5CCN(C)CC5)c(O)c4c3C2=O)NC(=O)/C(C)=C\C=C\[C@H](C)[C@H](O)[C@@H](C)[C@@H](O)[C@@H](C)[C@H](OC(C)=O)[C@@H]1C` [RIFAMPIN], the inhibition at 128 µM in experiment [1] is 100%.

As for `C=CCONC(=O)Cn1ccc(C(=O)N[C@@H](C)C(=O)N[C@H](C(=O)O)C(C)C)c1`, the IC50 with RAW264.7 (read-out: IC50) and with MRC5 was more than 128 µM throughout. In addition, the inhibition at 128 µM in experiment [1] is 12.8%. Further, in experiment [2], the inhibition stood at 27%.

For the molecule `COc1nc2ccc(Br)cc2cc1[C@@H](c1ccccc1)[C@@](O)(CCN(C)C)c1cccc2ccccc12` [BEDAQUILINE], in experiment [1], the inhibition at 128 µM was 100%.

Consider `CC(C)C[C@H](NC(=O)[C@H](C)NC(=O)c1cn(CC(=O)NOCc2ccccc2)c2ccccc12)C(=O)O`, for which the IC50 in the experiment with RAW264.7 (read-out: IC50) and in the experiment with MRC5 was more than 128 µM each time. Besides, the inhibition at 128 µM in experiment [1] worked out at 13.6%. The molecule further displayed an inhibition in experiment [2] of 56%.

With `CC(C)C[C@H](NC(=O)CNC(=O)c1ccn(CC(=O)NOCc2ccccc2)c1)C(=O)O`, the IC50 in the experiment on RAW264.7 (read-out: IC50) and with MRC5 was more than 128 µM in each case. Moreover, the inhibition at 128 µM in experiment [1] was determined as 9.2%. In experiment [2], the inhibition came out at 26%.

Consider `COC(=O)[C@H](CC(C)C)NC(=O)c1ccc(/C=C2\SC(=O)N(CC(=O)NOCc3ccccc3)C2=O)cc1`, for which the concentration for half-maximal inhibition (IC50) in the experiment on RAW264.7 (read-out: IC50) and in the experiment with MRC5 was more than 128 µM in each case. Further, in experiment [1], the inhibition at 128 µM worked out at 2%. The same molecule yielded an inhibition in experiment [2] of 5%. Besides, the Activity in experiment [3] came out at 80.3%.
